Experimental data reported in patent publication US7521478B2, “Total synthesis of myriaporones” (Pharma Mar, S.A.U., priority 2002, dated 2009).
Like-named read-outs stand apart in the source and are kept apart here.

Legend:
Type in all cases: cell-based
[1] = test system: K-562; assay: Inhibition of cell growth by colorimetric SRB assay, K-562; conditions: Homo sapiens, K562, K-562, 48 hours exposure; for CC50: cell killing, read-out: LC50 (the source's name); for IC (total growth inhibition): read-out: TGI
Source text: (§1) The finality of these assays is to interrupt the growth of a “in vitro” tumor cell culture by means a continued exhibition of the cells to the sample to be testing.
(§2) Inhibition of Cell Growth by Colorimetric Assay.
(§3) A colorimetric type of assay, using sulforhodamine B (SRB) reaction has been adapted for a quantitative measurement of cell growth and viability (following the technique described by P. A. Skehan, et al., J. Natl. CancerInst. 1990, 82, 1107-1112).
(§4) This form of assay employs 96 well cell culture microplates of 9 mm diameter (T. Mosmann et al., J. of Immuological Methods 1983, 65, 55-63; G. T. Faircloth et al., J. of Tissue and Culture Methods 1988, 11, 201-205). Most of the cell lines are obtained from American Type Culture Collection (ATCC) derived from different human cancer types.
(§5) Cells are maintained in RPMI 1640 10% FBS, supplemented with 0.1 g/L penicillin and 0.1 g/L streptomycin sulfate and then incubated at 37° C., 5% CO2 and 98% humidity. For the experiments, cells were harvested from subconfluent cultures using trypsin and resuspended in fresh medium before plating.
(§6) Cells are seeded in 96 well microtiter plates, at 5×10^3 cells per well in aliquots of 195 μL medium, and they are allowed to attach to the plate surface by growing in drug free medium for 18 hours. Afterward, samples are added in aliquots of 5 μL in a ranging from 10 to 10^−8 μg/mL, dissolved in DMSO/EtOH/PBS (0.5:0.5:99). After 48 hours exposure, the antitumor effect are measured by the SRB methodology: cells are fixed by adding 50 μL of cold 50% (wt/vol) trichloroacetic acid (TCA) and incubated for 60 minutes at 4° C. Plates are washed with deionizer water and dried. One hundred μl of SRB solution (0.4% wt/vol in 1% acetic acid) is added to each microliter well and incubated for 10 minutes at room temperature. Unbound SRB is removed by washing with 1% acetic acid. Plates are air dried and bound stain is solubilized with Tris buffer. Optical densities are read on a automated spectrophotometric plate reader at a single wavelength of 490 nm.
(§7) The values for mean +/−SD of data from triplicate wells are calculated. Some parameters for cellular responses can be calculated: GI=growth inhibition, TGI=total growth inhibition (cytostatic effect) and LC=cell killing (cytotoxic effect).

[2] = test system: IGROV-ET; assay: Inhibition of cell growth by colorimetric SRB assay, IGROV-ET; conditions: Homo sapiens, IGROV-ET, 48 hours exposure; for CC50: cell killing, read-out: LC50 (the source's name); for IC (total growth inhibition): read-out: TGI
Source text: as §1, §2, §3, §4, §5, §6, §7

[3] = test system: PANC-1; assay: Inhibition of cell growth by colorimetric SRB assay, PANC-1; conditions: Homo sapiens, PANC-1, 48 hours exposure; for CC50: cell killing, read-out: LC50 (the source's name); for IC (total growth inhibition): read-out: TGI
Source text: as §1, §2, §3, §4, §5, §6, §7

[4] = test system: LoVo; assay: Inhibition of cell growth by colorimetric SRB assay, LOVO; conditions: Homo sapiens, LOVO, 48 hours exposure; for LC50: cell killing, read-out: LC50; for IC (total growth inhibition): read-out: TGI
Source text: as §1, §2, §3, §4, §5, §6, §7

[5] = test system: SK-BR-3; assay: Inhibition of cell growth by colorimetric SRB assay, SK-BR-3; conditions: SK-BR-3, 48 hours exposure; for GI50 / CC50: Homo sapiens; for CC50: cell killing, read-out: LC50 (the source's name); for TGI: total growth inhibition
Source text: as §1, §2, §3, §4, §5, §6, §7

[6] = test system: IGROV; assay: Inhibition of cell growth by colorimetric SRB assay, IGROV; conditions: Homo sapiens, 48 hours exposure; for CC50: cell killing, read-out: LC50 (the source's name); for IC (total growth inhibition): read-out: TGI
Source text: as §1, §2, §3, §4, §5, §6, §7

[7] = test system: SK-MEL-28; assay: Inhibition of cell growth by colorimetric SRB assay, MEL-28; conditions: Homo sapiens, SK-MEL-28, MEL-28, 48 hours exposure; for CC50: cell killing, read-out: LC50 (the source's name); for IC (total growth inhibition): read-out: TGI
Source text: as §1, §2, §3, §4, §5, §6, §7

[8] = test system: HeLa-APL; assay: Inhibition of cell growth by colorimetric SRB assay, HELA-APL; conditions: Homo sapiens; for CC50: cell killing, read-out: LC50 (the source's name)
Source text: as §1, §2, §3, §4, §5, §6, §7

[9] = test system: LNCaP; assay: Inhibition of cell growth by colorimetric SRB assay, LN-caP; conditions: Homo sapiens, LN-caP, 48 hours exposure; for CC50: cell killing, read-out: LC50 (the source's name); for IC (total growth inhibition): read-out: TGI
Source text: as §1, §2, §3, §4, §5, §6, §7

[10] = test system: DU-145; assay: Inhibition of cell growth by colorimetric SRB assay, DU-145; conditions: Homo sapiens, DU-145, 48 hours exposure; for CC50: cell killing, read-out: LC50 (the source's name); for IC (total growth inhibition): read-out: TGI
Source text: as §1, §2, §3, §4, §5, §6, §7

[11] = test system: A-549; assay: Inhibition of cell growth by colorimetric SRB assay, A-549; conditions: Homo sapiens, A549, A-549, 48 hours exposure; for CC50: cell killing, read-out: LC50 (the source's name); for IC (total growth inhibition): read-out: TGI
Source text: as §1, §2, §3, §4, §5, §6, §7

[12] = test system: HeLa; assay: Inhibition of cell growth by colorimetric SRB assay, HELA; conditions: Homo sapiens, HELA, 48 hours exposure; for CC50: cell killing, read-out: LC50 (the source's name); for IC (total growth inhibition): read-out: TGI
Source text: as §1, §2, §3, §4, §5, §6, §7

[13] = test system: HT-29; assay: Inhibition of cell growth by colorimetric SRB assay, HT-29; conditions: Homo sapiens, HT-29, 48 hours exposure; for CC50: cell killing, read-out: LC50 (the source's name); for IC (total growth inhibition): read-out: TGI
Source text: as §1, §2, §3, §4, §5, §6, §7

[14] = test system: LoVo-Dox; assay: Inhibition of cell growth by colorimetric SRB assay, LOVO-DOX; conditions: Homo sapiens, LOVO-DOX, 48 hours exposure; for LC50 (concentration for 50% cell killing): read-out: LC50; for IC (total growth inhibition): read-out: TGI
Source text: as §1, §2, §3, §4, §5, §6, §7

C/C=C\[C@H](C)[C@H]1O[C@@]1(C)[C@@H](O)[C@@H](CO)C(=O)[C@@H](CO)[C@@H](O)CC(=O)CC [3c + 4c]
GI50 [1]: 4.59 µM | CC50 [1]: 26.8 µM | IC (total growth inhibition) [1]: 11.9 µM | GI50 [2]: 0.703 µM | CC50 [2]: 26.8 µM | IC (total growth inhibition) [2]: 6.95 µM | GI50 [3]: 1.03 µM | CC50 [3]: 26.8 µM | IC (total growth inhibition) [3]: 13.3 µM | GI50 [4]: 0.714 µM | LC50 [4]: 26.8 µM | IC (total growth inhibition) [4]: 7.01 µM | GI50 [5]: 1.16 µM | CC50 [5]: 26.8 µM | TGI [5]: 6.07E−06 Molar | GI50 [6]: 0.553 µM | CC50 [6]: 20.9 µM | IC (total growth inhibition) [6]: 3.57 µM | GI50 [7]: 0.634 µM | CC50 [7]: 26.8 µM | IC (total growth inhibition) [7]: 7.25 µM | CC50 ([8]; HELA-APL, 48 hours exposure): 26.8 µM | GI50 ([8]; HELA-APL, 48 hours exposure, read-out: GI50): 0.593 µM | IC (total growth inhibition) ([8]; HELA-APL, 48 hours exposure, total growth inhibition, read-out: TGI): 8.67 µM | GI50 [9]: 0.703 µM | CC50 [9]: 26.8 µM | IC (total growth inhibition) [9]: 4.56 µM | GI50 [10]: 0.55 µM | CC50 [10]: 26.8 µM | IC (total growth inhibition) [10]: 4.16 µM | GI50 [11]: 0.913 µM | CC50 [11]: 26.8 µM | IC (total growth inhibition) [11]: 13.4 µM | GI50 [12]: 0.62 µM | CC50 [12]: 26.8 µM | IC (total growth inhibition) [12]: 4.78 µM | GI50 [13]: 0.564 µM | CC50 [13]: 26.8 µM | IC (total growth inhibition) [13]: 6.69 µM | GI50 [14]: 0.846 µM | LC50 (concentration for 50% cell killing) [14]: 26.8 µM | IC (total growth inhibition) [14]: 6.18 µM

C/C=C\[C@H](C)[C@H]1OC1(C)[C@@H](O[Si](C)(C)C(C)(C)C)[C@@H](CO)C(=O)[C@H](CO)[C@@H](O)CC(=O)CC (some centres unmarked) [20a + 20c]
GI50 [1]: 7.75 µM | CC50 [1]: ≥ 20.5 µM | IC (total growth inhibition) [1]: 20.5 µM | GI50 [2]: 13.8 µM | CC50 [2]: ≥ 20.5 µM | IC (total growth inhibition) [2]: 20.5 µM | GI50 [3]: 14 µM | CC50 [3]: ≥ 20.5 µM | IC (total growth inhibition) [3]: 20.5 µM | GI50 [4]: 10.4 µM | LC50 [4]: ≥ 20.5 µM | IC (total growth inhibition) [4]: 20.5 µM | GI50 [5]: 11.1 µM | CC50 [5]: ≥ 20.5 µM | TGI [5]: 2.05E−05 Molar | GI50 [6]: 14.1 µM | CC50 [6]: ≥ 20.5 µM | IC (total growth inhibition) [6]: 20.5 µM | GI50 [7]: 16.3 µM | CC50 [7]: ≥ 20.5 µM | IC (total growth inhibition) [7]: 20.5 µM | GI50 ([8]; 48 h): 12.9 µM | CC50 ([8]; HELA-APL, 48 hours exposure): ≥ 20.5 µM | GI50 [9]: 8.42 µM | CC50 [9]: ≥ 20.5 µM | IC (total growth inhibition) [9]: 20.5 µM | GI50 [10]: 10.7 µM | CC50 [10]: ≥ 20.5 µM | IC (total growth inhibition) [10]: 20.5 µM | GI50 [11]: ≥ 20.5 µM | CC50 [11]: ≥ 20.5 µM | IC (total growth inhibition) [11]: 20.5 µM | GI50 [12]: 13.3 µM | CC50 [12]: ≥ 20.5 µM | IC (total growth inhibition) [12]: 20.5 µM | GI50 [13]: 17.1 µM | CC50 [13]: ≥ 20.5 µM | IC (total growth inhibition) [13]: 20.5 µM | GI50 [14]: 85.1 µM | LC50 (concentration for 50% cell killing) [14]: ≥ 20.5 µM | IC (total growth inhibition) [14]: 20.5 µM
